Consider 1 compound from US11857550B2, “Benzathine analogs” (University of Pittsburgh—Of the Commonwealth System of …, priority 2012, dated 2024).

The test system of the assay is C57BL6 mice. It counts as in vivo. The conditions noted are these: 30 ug/ml in drinking water, day 5.

Regarding `c1ccc(-c2ccc(CNCCNCc3ccc(-c4ccccn4)cc3)cc2)nc1` [BC-1215], the lung resistance entry was “decreased lung resistance”.
